Test results as given in ChEMBL document CHEMBL1130812, “The design and synthesis of inhibitors of the cysteinyl protease, Der p I” (Bioorg Med Chem Lett, 1998).
pKi: −log10 of the molar value. Where a SMILES comes first, the peptide text is derived from it. The star is where a group is joined. Boc = CC(C)(C)OC(=O)*

Biological target: not listed separately
Assay: Reversible Inhibitory activity on Cysteinyl protease was evaluated
Set-up: species or system Dermatophagoides pteronyssinus

| pKi | Structure (SMILES) |
| --- | --- |
| 8.80 | CCCC[C@H](NC(=O)[C@H](C)NC(=O)[C@@H](NC(=O)c1ccccc1)C(C)C)C(=O)CBr |

System: Dermatophagoides pteronyssinus
Assay: Inhibitory activity against Cysteinyl protease was evaluated by method A

| k obs / 1 [M⁻¹ s⁻¹] | Structure (SMILES) |
| --- | --- |
| < 100 | CCOC(=O)/C=C/[C@H](CC(C)C)NC(=O)[C@H](C)NC(=O)[C@@H](NC(C)=O)C(C)C |
| < 100 | CCOC(=O)/C=C/[C@H](CC(C)C)NC(=O)[C@H](C)NC(=O)[C@@H](N)C(C)C |

System: Dermatophagoides pteronyssinus
Assay: Inhibitory activity against Cysteinyl protease was evaluated by method A in experiment 1

| k obs / 1 [M⁻¹ s⁻¹] | Structure (SMILES) |
| --- | --- |
| 1e+06 | CCCC[C@H](NC(=O)[C@H](C)NC(=O)[C@@H](NC(=O)c1ccccc1)C(C)C)C(=O)COC(=O)c1c(C(F)(F)F)cccc1C(F)(F)F |
| 370000 | CCCC[C@H](NC(=O)[C@H](C)NC(=O)[C@@H](NC(=O)c1ccccc1)C(C)C)C(=O)COC(=O)c1ccccc1 |

More lines, now with the values behind:

| Structure (SMILES) | k obs / 1 [M⁻¹ s⁻¹] |
| --- | --- |
| CC(C)C[C@@H](/C=C/S(=O)(=O)c1ccccc1)NC(=O)[C@H](C)NC(=O)[C@@H](NC(=O)OC(C)(C)C)C(C)C | 6400 |
| CC(C)C[C@@H](/C=C/S(=O)(=O)Cc1ccccc1)NC(=O)[C@H](C)NC(=O)[C@@H](NC(=O)OC(C)(C)C)C(C)C | 2300 |
| CC(C)C[C@@H](/C=C/S(C)(=O)=O)NC(=O)[C@H](C)NC(=O)[C@@H](NC(=O)OC(C)(C)C)C(C)C | 1100 |
| CCOC(=O)/C=C/[C@H](CC(C)C)NC(=O)[C@H](C)NC(=O)[C@@H](NC(=O)c1ccccc1)C(C)C | 4100 |
| CCOC(=O)/C=C/[C@H](CC(C)C)NC(=O)[C@H](C)NC(=O)[C@@H](NC(=O)OC(C)(C)C)C(C)C | 1700 |

System: Dermatophagoides pteronyssinus
Assay: Inhibitory activity against Cysteinyl protease was evaluated by method A in experiment 2

| k obs / 1 [M⁻¹ s⁻¹] | Structure (SMILES) |
| --- | --- |
| 2.2e+06 | CCCC[C@H](NC(=O)[C@H](C)NC(=O)[C@@H](NC(=O)c1ccccc1)C(C)C)C(=O)COC(=O)c1c(C(F)(F)F)cccc1C(F)(F)F |
| 50000 | CCCC[C@H](NC(=O)[C@H](C)NC(=O)[C@@H](NC(=O)c1ccccc1)C(C)C)C(=O)COC(=O)c1ccccc1 |

More lines, now with the values behind:

| Structure (SMILES) | k obs / 1 [M⁻¹ s⁻¹] |
| --- | --- |
| CC(C)C[C@@H](/C=C/S(=O)(=O)c1ccccc1)NC(=O)[C@H](C)NC(=O)[C@@H](NC(=O)OC(C)(C)C)C(C)C | 25000 |
| CC(C)C[C@@H](/C=C/S(=O)(=O)Cc1ccccc1)NC(=O)[C@H](C)NC(=O)[C@@H](NC(=O)OC(C)(C)C)C(C)C | 350000 |
| CC(C)C[C@@H](/C=C/S(C)(=O)=O)NC(=O)[C@H](C)NC(=O)[C@@H](NC(=O)OC(C)(C)C)C(C)C | 11000 |
| CCOC(=O)/C=C/[C@H](CC(C)C)NC(=O)[C@H](C)NC(=O)[C@@H](NC(=O)c1ccccc1)C(C)C | 16000 |
| CCOC(=O)/C=C/[C@H](CC(C)C)NC(=O)[C@H](C)NC(=O)[C@@H](NC(=O)OC(C)(C)C)C(C)C | 7900 |

System: Dermatophagoides pteronyssinus
Assay: Inhibitory activity against Cysteinyl protease was evaluated by method B

| k obs / 1 [M⁻¹ s⁻¹] | Structure (SMILES) |
| --- | --- |
| 6.8e+07 | CCCC[C@H](NC(=O)[C@H](C)NC(=O)[C@@H](NC(=O)c1ccccc1)C(C)C)C(=O)COC(=O)c1c(Cl)cccc1Cl |
| 1.3e+07 | CCCC[C@H](NC(=O)[C@H](C)NC(=O)[C@@H](NC(=O)c1ccccc1)C(C)C)C(=O)COC(=O)c1c(C(F)(F)F)cccc1C(F)(F)F |
| 1.6e+07 | CCCC[C@H](NC(=O)[C@H](C)NC(=O)[C@@H](NC(=O)c1ccccc1)C(C)C)C(=O)COC(=O)c1c(C)cccc1C |

Biological target: not listed separately
Assay: Inhibitory activity against Cysteinyl protease was evaluated
Set-up: species or system Dermatophagoides pteronyssinus

| pKi | Structure (SMILES) |
| --- | --- |
| 7.85 | CC(C)C[C@@H](C=O)NC(=O)[C@H](C)NC(=O)[C@@H](NC(=O)OC(C)(C)C)C(C)C (Boc-Val-Ala-Leu-aldehyde) |
